{"source": "patent US10307463B2", "about": "(priority 2003, dated 2019)", "key": {"[1]": {"settings": "pH 4"}, "[2]": {"tested_on": "gross behavioral and cardiovascular effects", "settings": "rat, in vivo"}, "[3]": {"tested_on": "respiratory minute volume responses to CO2", "settings": "rat, in vivo"}, "GI transit": {"tested_on": "GI transit", "settings": "rat, in vivo"}, "rats": {"tested_on": "rats", "settings": "rat, in vivo"}, "dogs": {"tested_on": "dogs", "settings": "dog, in vivo"}, "in vivo [4]": {"experiment": "in vivo", "settings": "rat"}, "in vivo [5]": {"experiment": "in vivo", "settings": "dog"}}}
{"smiles": "CSCC[C@@H]1NC(=O)[C@H](CC(C)C)NC(=O)[C@H](CCCNC(=N)N)NC(=O)[C@H](CO)NC(=O)[C@@H]2CSSC[C@@H]3NC(=O)[C@H](CO)NC(=O)CNC(=O)[C@H]([C@@H](C)O)NC(=O)[C@H](CSSC[C@H](N)C(=O)N[C@@H](CCCCN)C(=O)NCC(=O)N[C@@H](CCCCN)C(=O)NCC(=O)N[C@@H](C)C(=O)N[C@@H](CCCCN)C(=O)N2)NC(=O)[C@H](CSSC[C@@H](C(N)=O)NC(=O)[C@H](CCCCN)NC(=O)CNC(=O)[C@H](CO)NC(=O)[C@H](CCCNC(=N)N)NC3=O)NC(=O)[C@H](CC(=O)O)NC(=O)[C@H](Cc2ccc(O)cc2)NC1=O", "note": "[ziconotide]", "values": [{"measurement": "stability in solution", "setting": "[1]", "result": "stable at 45 °C for weeks"}, {"measurement": "gross behavioral and cardiovascular effects", "setting": "[2]", "result": "well tolerated"}, {"measurement": "respiratory depression, subacute administration", "setting": "[3]", "result": "did not induce respiratory depression"}, {"measurement": "respiratory minute volume responses to CO2 / acute respiratory depression", "setting": "[3]", "result": "did not depress"}, {"measurement": "GI transit", "setting": "GI transit", "result": "does not itself affect GI tract motility"}, {"measurement": "body weight, food intake or clinical pathology parameters", "setting": "rats", "result": "no treatment-related changes"}, {"measurement": "mean plasma drug level relative to human", "setting": "rats", "result": "approximately 3 fold"}, {"measurement": "target organ toxicity at termination", "setting": "rats", "result": "nor was any target organ toxicity identified"}, {"measurement": "body weight, food intake or clinical pathology parameters", "setting": "dogs", "result": "no treatment-related changes"}, {"measurement": "granuloma formation at the catheter tip", "setting": "dogs", "result": "no granuloma formation"}, {"measurement": "mean plasma drug level relative to human", "setting": "dogs", "result": "~10", "unit": "fold"}, {"measurement": "moribund euthanasia due to CNS effects (tremors, shaking-behavior, ataxia)", "setting": "dogs", "result": "4/16"}, {"measurement": "target organ toxicity at termination", "setting": "dogs", "result": "nor was any target organ toxicity identified"}, {"measurement": "level at 672 h", "setting": "in vivo [4]", "result": "< 4", "unit": "ng/mL"}, {"measurement": "level at 672 h", "setting": "in vivo [5]", "result": "< 4", "unit": "ng/mL"}]}
